# Reference: PubChem BioAssay (NCI)
#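 Cultured in 96-well plates, cells were exposed to test compound for 48 hours across five concentrations. Definition used: TGI = concentration required for complete inhibition of growth.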
# Tests used:
# Test in all cases: DTP human tumour cell line panel, 48 h
# HOP-18 NSCLC = tested on: HOP-18 NSCLC
# UACC-62 melanoma = tested on: UACC-62 melanoma
# SK-OV-3 ovarian = tested on: SK-OV-3 ovarian
# MOLT-4 leukemia = tested on: MOLT-4 leukemia
# NCI-H460 lung = tested on: NCI-H460 lung
# CAKI-1 renal = tested on: CAKI-1 renal
# UO-31 renal = tested on: UO-31 renal
# OVCAR-4 ovarian = tested on: OVCAR-4 ovarian
# MCF7 breast = tested on: MCF7 breast
# OVCAR-3 ovarian = tested on: OVCAR-3 ovarian
# HCT-116 colon = tested on: HCT-116 colon
smiles,measurement,setting,value
Cc1cc2c(s1)C(=O)c1sccc1C2=O,TGI,HOP-18 NSCLC,2810 nM
same,TGI,UACC-62 melanoma,524 nM
same,TGI,SK-OV-3 ovarian,4470 nM
same,TGI,MOLT-4 leukemia,> 22400 nM
same,TGI,NCI-H460 lung,3230 nM
same,TGI,CAKI-1 renal,3170 nM
same,TGI,UO-31 renal,2290 nM
same,TGI,OVCAR-4 ovarian,1450 nM
same,TGI,MCF7 breast,2780 nM
same,TGI,OVCAR-3 ovarian,2190 nM
same,TGI,HCT-116 colon,2460 nM
